Data from ChEMBL document CHEMBL5316268 (J Med Chem, 2023).
The source made the active and inactive calls. The rule behind the calls is not given here.

Key:
[1] = Oral bioavailability in CD rat at 50 mg/kg measured for 24 hrs by LC-MS/MS analysis; assay type: ADME, organism-based; settings: in vivo, po, 50 mg/kg, 24 h
[2] = AUC (0 to 24 hrs) in CD rat at 500 mg/kg, po measured for 24 hrs by LC-MS/MS analysis; assay type: ADME, organism-based; set-up: time 24 hrs, dose 500 mg/kg, route po; settings: in vivo
5'-nucleotidase [3] = target: T1, 5'-nucleotidase (Homo sapiens, UniProt P21589); assay: Inhibition of CD73 in human plasma incubated for 15 mins in presence of 15N5-AMP by LC/MS analysis; assay type: cell-free
5'-nucleotidase [4] = target: T1, 5'-nucleotidase; assay: Inhibition of CD73 in human plasma derived from TNBC cancer patient incubated for 15 mins in presence of 15N5-AMP by LC/MS analysis; assay type: cell-free
[5] = Cmax in CD rat at 500 mg/kg, po measured for 24 hrs by LC-MS/MS analysis; assay type: ADME, organism-based; set-up: dose 500 mg/kg, time 24 hrs, route po; settings: in vivo
CD8-positive T cell [6] = assay: Reversal of AMP-mediated suppression of human CD8-positive T cells function assessed as increase in IFN-gamma level at 0.01 to 1000 nM measured after 4 days by ELISA; assay type: functional, cell-based; settings: dose 0.01-1000 nM, time 4.0 day
Cytochrome P450 2C19 = Cytochrome P450 2C19 (Homo sapiens, UniProt P33261); assay: Inhibition of human CYP2C19 at 10 uM; assay type: ADME
Cytochrome P450 2C8 = target: T2, Cytochrome P450 2C8 (Homo sapiens, UniProt P10632); assay: Inhibition of human CYP2C8 at 10 uM; assay type: ADME
T2 sequence (P10632 whole entry): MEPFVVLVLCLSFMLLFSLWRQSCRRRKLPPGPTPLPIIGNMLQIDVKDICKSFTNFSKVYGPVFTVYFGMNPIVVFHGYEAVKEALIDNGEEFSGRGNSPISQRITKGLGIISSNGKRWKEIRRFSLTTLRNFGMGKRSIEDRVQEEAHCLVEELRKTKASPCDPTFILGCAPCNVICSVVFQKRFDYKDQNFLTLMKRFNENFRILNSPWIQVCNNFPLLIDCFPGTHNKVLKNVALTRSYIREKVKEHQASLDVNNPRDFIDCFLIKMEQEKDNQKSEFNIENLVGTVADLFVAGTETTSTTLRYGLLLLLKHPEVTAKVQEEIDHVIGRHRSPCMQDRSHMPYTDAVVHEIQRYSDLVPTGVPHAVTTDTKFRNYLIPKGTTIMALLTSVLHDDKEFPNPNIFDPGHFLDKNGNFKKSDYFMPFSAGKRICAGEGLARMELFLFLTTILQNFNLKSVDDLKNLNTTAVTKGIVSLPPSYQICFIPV

[7] = Drug concentration in mouse plasma at 50 mg/kg, po administered as single dose measured after 24 hrs by LC/MS analysis; assay type: ADME, organism-based
CD8-positive T cell [8] = assay: Reversal of AMP-mediated suppression of human CD8-positive T cell proliferation at 0.01 to 1000 nM measured after 4 days by flow cytometry; assay type: functional, cell-based; settings: dose 0.01-1000 nM, time 4.0 day
5'-nucleotidase [9] = target: T1, 5'-nucleotidase; assay: Competitive inhibition of soluble C-terminal 6His-tagged recombinant human CD73 (27 to 547 residues) expressed in CHO cells assessed as inhibition constant incubated for 1 hr by malachite green based spectrophotometer assay; assay type: cell-based
Cytochrome P450 1A2 = target: T3, Cytochrome P450 1A2 (Homo sapiens, UniProt P05177); assay: Inhibition of human CYP1A2 at 10 uM; assay type: ADME
T3 sequence (P05177 whole entry): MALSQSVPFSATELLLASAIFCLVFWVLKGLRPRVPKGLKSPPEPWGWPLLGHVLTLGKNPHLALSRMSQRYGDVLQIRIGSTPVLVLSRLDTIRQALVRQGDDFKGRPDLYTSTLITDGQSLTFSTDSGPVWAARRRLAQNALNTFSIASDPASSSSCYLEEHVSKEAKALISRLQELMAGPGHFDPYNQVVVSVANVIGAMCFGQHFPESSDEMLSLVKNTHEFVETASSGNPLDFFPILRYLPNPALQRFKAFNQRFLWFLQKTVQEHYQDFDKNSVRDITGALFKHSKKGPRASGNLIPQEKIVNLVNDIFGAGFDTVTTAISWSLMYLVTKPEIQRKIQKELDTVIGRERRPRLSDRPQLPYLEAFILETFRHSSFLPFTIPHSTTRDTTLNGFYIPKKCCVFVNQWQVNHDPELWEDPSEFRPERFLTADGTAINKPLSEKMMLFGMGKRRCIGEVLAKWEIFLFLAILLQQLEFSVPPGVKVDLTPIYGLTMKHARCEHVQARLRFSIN

CD8-positive T cell [10] = assay: Reversal of AMP-mediated suppression of human CD8-positive T cells function assessed as increase in CD25 expression at 0.01 to 1000 nM measured after 4 days by flow cytometry; assay type: functional, cell-based; settings: dose 0.01-1000 nM, time 4.0 day
[11] = Plasma protein binding in mouse at 10 uM assessed as bound fraction; assay type: ADME, cell-free; settings: read-out: PPB (converted)
Cytochrome P450 2B6 = target: T4, Cytochrome P450 2B6 (Homo sapiens, UniProt P20813); assay: Inhibition of human CYP2B6 at 10 uM; assay type: ADME
T4 sequence (P20813 whole entry): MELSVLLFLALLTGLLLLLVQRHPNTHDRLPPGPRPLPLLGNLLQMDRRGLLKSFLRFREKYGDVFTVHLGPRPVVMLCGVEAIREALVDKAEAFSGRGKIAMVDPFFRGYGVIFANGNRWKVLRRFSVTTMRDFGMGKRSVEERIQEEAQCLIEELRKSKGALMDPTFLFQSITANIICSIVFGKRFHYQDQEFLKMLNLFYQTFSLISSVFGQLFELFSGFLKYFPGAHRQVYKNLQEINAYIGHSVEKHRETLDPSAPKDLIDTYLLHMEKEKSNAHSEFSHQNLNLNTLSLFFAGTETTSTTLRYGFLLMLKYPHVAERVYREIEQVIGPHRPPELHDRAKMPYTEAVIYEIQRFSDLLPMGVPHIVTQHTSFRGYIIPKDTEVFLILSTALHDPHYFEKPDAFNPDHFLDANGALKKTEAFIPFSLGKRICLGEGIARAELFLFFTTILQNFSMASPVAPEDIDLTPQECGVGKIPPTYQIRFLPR

CD8-positive T cell [12] = assay: Reversal of AMP-mediated suppression of human CD8-positive T cells function assessed as increase in granzyme B level at 0.01 to 1000 nM measured after 4 days by ELISA; assay type: functional, cell-based; settings: dose 0.01-1000 nM, time 4.0 day
[13] = Cmax in CD rat at 200 mg/kg, po measured for 24 hrs by LC-MS/MS analysis; assay type: ADME, organism-based; set-up: time 24 hrs, dose 200 mg/kg, route po; settings: in vivo
[14] = Tmax in CD rat at 200 mg/kg, po measured for 24 hrs by LC-MS/MS analysis; assay type: ADME, organism-based; settings: in vivo
5'-nucleotidase [15] = target: T1, 5'-nucleotidase; assay: Competitive inhibition of cell surface anchored CD73 (unknown origin) expressed in human SK-MEL-28 cells assessed as inhibition constant incubated for 30 mins by malachite green assay; assay type: cell-based
[16] = Plasma protein binding in human at 10 uM assessed as bound fraction; assay type: ADME, cell-free; settings: read-out: PPB (converted)
[17] = In vivo inhibition of plasma CD73 in mouse xenografted with mouse EG7 cells at 50 mg/kg, po bid administered for 20 days and measured after 2 hrs post last dose in presence of 15N5-AMP and TNAP inhibitor by LC/MS analysis relative to control; assay type: functional; settings: EG7, 480 h, time 20 day
EG7 = assay: Antitumor activity against mouse EG7 cells implanted in C57BL/6 mouse assessed as reduction in tumor volume at 100 mg/kg, po bid administered for 21 days in presence of anti-PD-L1 antibody; assay type: functional, organism-based; settings: time 21.0 day

T1 sequence (P21589 whole entry): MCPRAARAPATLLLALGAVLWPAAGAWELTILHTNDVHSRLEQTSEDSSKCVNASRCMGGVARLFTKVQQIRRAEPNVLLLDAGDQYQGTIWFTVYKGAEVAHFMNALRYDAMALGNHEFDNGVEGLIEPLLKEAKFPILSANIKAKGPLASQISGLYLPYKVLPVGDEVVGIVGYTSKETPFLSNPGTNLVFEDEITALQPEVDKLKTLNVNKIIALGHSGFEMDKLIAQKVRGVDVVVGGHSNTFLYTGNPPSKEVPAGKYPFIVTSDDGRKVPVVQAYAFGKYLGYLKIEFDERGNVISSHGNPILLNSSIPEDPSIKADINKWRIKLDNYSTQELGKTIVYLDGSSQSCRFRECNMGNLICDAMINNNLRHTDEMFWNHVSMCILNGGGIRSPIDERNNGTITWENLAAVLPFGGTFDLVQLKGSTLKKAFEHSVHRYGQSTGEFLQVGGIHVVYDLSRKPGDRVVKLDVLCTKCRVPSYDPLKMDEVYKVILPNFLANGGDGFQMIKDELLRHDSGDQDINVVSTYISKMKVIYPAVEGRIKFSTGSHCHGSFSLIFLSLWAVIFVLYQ
Sequence of Cytochrome P450 2C19 (P33261 whole entry): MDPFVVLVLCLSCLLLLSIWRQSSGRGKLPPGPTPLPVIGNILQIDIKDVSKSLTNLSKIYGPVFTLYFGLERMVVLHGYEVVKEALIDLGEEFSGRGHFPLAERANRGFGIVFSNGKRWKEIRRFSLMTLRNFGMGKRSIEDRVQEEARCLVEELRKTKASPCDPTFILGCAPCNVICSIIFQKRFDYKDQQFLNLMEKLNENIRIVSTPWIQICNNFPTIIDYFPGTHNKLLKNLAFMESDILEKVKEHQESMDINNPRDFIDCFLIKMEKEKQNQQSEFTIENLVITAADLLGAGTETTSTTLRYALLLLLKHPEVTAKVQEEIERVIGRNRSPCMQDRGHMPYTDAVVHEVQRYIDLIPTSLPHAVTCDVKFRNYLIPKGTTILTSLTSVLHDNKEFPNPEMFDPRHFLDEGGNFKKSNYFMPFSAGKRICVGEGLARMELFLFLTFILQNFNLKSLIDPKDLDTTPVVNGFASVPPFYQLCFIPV

C#C[C@@]1(O)[C@@H](COC(Cc2ccc(N3CCCNC3=O)cc2)(C(=O)O)C(=O)O)O[C@@H](n2cnc3c(N)nc(Cl)nc32)[C@@H]1O
F [1]: 2.8% | AUC(0-t) at 24 h [2]: 18500 ng·h/mL | IC90 (5'-nucleotidase [3]): 3 nM | IC50 (5'-nucleotidase [4]): 0.18 nM | Cmax [5]: 11000 nM | Activity (CD8-positive T cell [6]): Active | inhibition (INH) (Cytochrome P450 2C19): Not Active | inhibition (INH) (Cytochrome P450 2C8): Not Active | concentration at 24 h [7]: > 1 nM | Activity (CD8-positive T cell [8]): Active | Ki (5'-nucleotidase [9]): 0.038 nM | inhibition (INH) (Cytochrome P450 1A2): Not Active | Activity (CD8-positive T cell [10]): Active | fraction unbound at 10 µM [11]: 0.37 | inhibition (INH) (Cytochrome P450 2B6): Not Active | Activity (CD8-positive T cell [12]): Active | Cmax [13]: 1800 nM | Tmax [14]: 48 min | Ki (5'-nucleotidase [15]): 0.11 nM | fraction unbound at 10 µM [16]: 0.42 | inhibition in vivo at 50 mg/kg [17]: 92% | Activity (EG7): Active
